Reference: patent publication US20160075653A1, “NEMATICIDAL N-(PHENYLCYCLOALKYL)CARBOXAMIDES AND N-(PHENYLCYCLOALKYL)THIOCARBOXAMIDES” (BAYER CROPSCIENCE AKTIENGESELLSCHAFT, priority 2013, published 2016)

Experiment: Measurement of log P values by HPLC on reversed phase columns (methods [a] pH 2.3, [b] pH 2.7, [c] pH 7.8)
Format: physicochemical
Summary of the method: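 Retention times were converted to log P by linear interpolation between linear alkan-2-one standards (3 to 16 carbons) of known log P. Eluents, each with 10% to 95% acetonitrile gradient: phosphoric acid 0.1% at pH 2.3 [a]; formic acid 0.1% at pH 2.7, LC-MS [b]; ammonium hydrogen carbonate 0.001 molar at pH 7.8, LC-MS [c].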

[1] = HPLC reversed phase, method [b] (pH 2.7)
[2] = HPLC reversed phase, method [c] pH 7.8
[3] = HPLC on reversed phase column, method [b], pH 2.7
[4] = HPLC on reversed phase column, method [c], pH 7.8

| SMILES | logP [1] | logP [3] | further results |
| --- | --- | --- | --- |
| CC(C)Oc1ccc([C@H]2CCC[C@H]2NC(=O)c2ccc(I)s2)cc1 (relative stereo) [Example 338] | 4.43^[b] | – | logP [2]: 4.27^[c]; |
| O=C(N[C@@H]1CCC[C@@H]1c1ccccc1F)c1ccccn1 (relative stereo) [Example 339] | 1.86^[b] | – | logP [2]: 1.95^[c]; |
| CC(C)Oc1ccc([C@H]2CCC[C@H]2NC(=O)c2nccnc2C(F)(F)F)cc1 (relative stereo) [Example 340] | 3.62^[b] | – | logP [2]: 3.55^[c]; |
| O=C(N[C@@H]1CCC[C@@H]1c1ccccc1F)c1nccnc1C(F)(F)F (relative stereo) [Example 341] | 3.00^[b] | – | logP [2]: 2.94^[c]; |
| Cc1nc(C(F)(F)F)c(C(=O)N[C@@H]2CCC[C@@H]2c2ccc(OC(C)C)cc2)s1 (relative stereo) [Example 342] | 3.80^[b] | – | logP [2]: 3.71^[c]; |
| Cc1nc(C(F)(F)F)c(C(=O)N[C@@H]2CCC[C@@H]2c2ccccc2F)s1 (relative stereo) [Example 343] | 3.18^[b] | – | logP [2]: 3.07^[c]; |
| O=C(N[C@@H]1CCC[C@@H]1c1ccc(C(F)(F)F)cc1)c1sccc1I (relative stereo) [Example 360] | 4.21^[b] | – | logP [2]: 4.16^[c]; |
| O=C(N[C@@H]1CC[C@H]1c1ccc(F)cc1C(F)(F)F)c1c(F)cccc1F (relative stereo) [Example 492] | 3.38^[b] | – | – |
| O=C(N[C@@H]1CC[C@H]1c1ccc(F)cc1C(F)(F)F)c1ccccc1 (relative stereo) [Example 504] | 3.42^[b] | – | – |
| O=C(N[C@@H]1CC[C@@H]1c1ccc(F)cc1C(F)(F)F)c1ccc(Cl)cc1Cl (relative stereo) [Example 506] | 3.85^[b] | – | – |
| O=C(N[C@@H]1CC[C@H]1c1ccc(F)cc1C(F)(F)F)c1ccc(Cl)cc1 (relative stereo) [Example 507] | 3.94^[b] | – | – |
| O=C(N[C@@H]1CC[C@@H]1c1ccc(F)cc1C(F)(F)F)c1ccc(Cl)cc1 (relative stereo) [Example 508] | 3.62^[b] | – | – |
| O=C(N[C@@H]1CC[C@H]1c1ccc(F)cc1C(F)(F)F)c1ccc(Cl)cc1Cl (relative stereo) [Example 510] | 4.08^[b] | – | – |
| O=C(N[C@@H]1CC[C@@H]1c1ccc(F)cc1C(F)(F)F)c1cccc(Cl)c1 (relative stereo) [Example 511] | 3.65^[b] | – | – |
| O=C(N[C@@H]1CC[C@H]1c1ccc(F)cc1C(F)(F)F)c1ccccc1Cl (relative stereo) [Example 512] | 3.56^[b] | – | – |
| O=C(N[C@@H]1CC[C@H]1c1ccc(F)cc1C(F)(F)F)c1ccccc1[N+](=O)[O-] (relative stereo) [Example 521] | 3.10^[b] | – | – |

| SMILES | logP [1] | logP [3] | further results |
| --- | --- | --- | --- |
| O=C(N[C@@H]1CC[C@H]1c1ccc(F)cc1C(F)(F)F)c1cccnc1Cl (relative stereo) [Example 524] | 2.93^[b] | – | – |
| O=C(N[C@@H]1CC[C@H]1c1ccc(F)cc1C(F)(F)F)c1nccnc1Cl (relative stereo) [Example 525] | 3.16^[b] | – | – |
| O=C(N[C@@H]1CC[C@H]1c1ccc(F)cc1C(F)(F)F)c1cccnc1 (relative stereo) [Example 526] | 2.41^[b] | – | – |
| O=C(N[C@@H]1CC[C@@H]1c1cc(F)ccc1C(F)(F)F)c1ccc(Cl)cc1 (relative stereo) [Example 527] | 3.63^[b] | – | – |
| O=C(N[C@@H]1CC[C@@H]1c1cc(F)ccc1C(F)(F)F)c1ncc(C(F)(F)F)cc1Cl (relative stereo) [Example 529] | 3.91^[b] | – | – |
| Cc1nc(C(F)(F)F)c(C(=O)N[C@@H]2CC[C@H]2c2ccc(F)cc2C(F)(F)F)s1 (relative stereo) [Example 530] | 3.60^[b] | – | – |
| Cc1nc(C(F)(F)F)c(C(=O)N[C@@H]2CC[C@@H]2c2ccc(F)cc2C(F)(F)F)s1 (relative stereo) [Example 531] | 3.35^[b] | – | – |
| O=C(N[C@@H]1CC[C@H]1c1ccccc1Cl)c1cccnc1Cl (relative stereo) [Example 533] | 3.65^[b] | – | – |
| O=C(N[C@@H]1CC[C@@H]1c1ccccc1Cl)c1cccnc1Cl (relative stereo) [Example 534] | 2.40^[b] | – | – |
| O=C(N[C@@H]1CC[C@@H]1c1c(F)cccc1C(F)(F)F)c1ccc(Cl)cc1Cl (relative stereo) [Example 535] | 3.93^[b] | – | – |
| O=C(N[C@@H]1CC[C@@H]1c1c(F)cccc1C(F)(F)F)c1ccc(Cl)cc1 (relative stereo) [Example 536] | 3.72^[b] | – | – |
| O=C(N[C@@H]1CC[C@H]1c1ccccc1Cl)c1cccnc1 (relative stereo) [Example 539] | 2.06^[b] | – | – |
| O=C(N[C@@H]1CC[C@H]1c1ccccc1Cl)c1ccccc1[N+](=O)[O-] (relative stereo) [Example 547] | 2.92^[b] | – | – |
| O=C(N[C@@H]1CC[C@@H]1c1c(F)cccc1C(F)(F)F)c1cccc(Cl)c1 (relative stereo) [Example 552] | 4.26^[b] | – | – |
| Cc1nc(C(F)(F)F)c(C(=O)N[C@@H]2CC[C@H]2c2ccccc2Cl)s1 (relative stereo) [Example 554] | 3.34^[b] | – | – |
| O=C(N[C@@H]1CC[C@@H]1c1cc(F)ccc1C(F)(F)F)c1ccc(Cl)cc1Cl (relative stereo) [Example 557] | 3.85^[b] | – | – |

More lines, main results first:

| logP [1] | logP [3] | SMILES | further results |
| --- | --- | --- | --- |
| 2.16^[b] | – | O=C(N[C@@H]1CC[C@@H]1c1c(F)cccc1C(F)(F)F)c1cccnc1 (relative stereo) [Example 562] | – |
| 2.85^[b] | – | O=C(N[C@@H]1C[C@@H]1c1ccc(Cl)cc1Cl)c1cccnc1C(F)(F)F (relative stereo) [Example 565] | – |
| 3.29^[b] | – | Cc1nc(C(F)(F)F)c(C(=O)N[C@@H]2C[C@@H]2c2ccc(Cl)cc2Cl)s1 (relative stereo) [Example 568] | – |
| 3.40^[b] | – | Cc1nc(C(F)(F)F)c(C(=O)N[C@@H]2CC[C@@H]2c2cc(F)ccc2C(F)(F)F)s1 (relative stereo) [Example 569] | – |
| 3.47^[b] | – | Cc1nc(C(F)(F)F)c(C(=O)N[C@@H]2CC[C@@H]2c2c(F)cccc2C(F)(F)F)s1 (relative stereo) [Example 573] | – |
| 2.06^[b] | – | O=C(N[C@@H]1C[C@@H]1c1ccc(Cl)cc1Cl)c1cccnc1 (relative stereo) [Example 583] | – |
| 3.63^[b] | – | O=C(N[C@@H]1CC[C@H]1c1cccc(F)c1C(F)(F)F)c1ccccc1C(F)(F)F (relative stereo) [Example 588] | – |
| 3.68^[b] | – | O=C(N[C@@H]1CC[C@H]1c1cccc(F)c1C(F)(F)F)c1ccccc1I (relative stereo) [Example 590] | – |
| 3.35^[b] | – | O=C(N[C@@H]1CC[C@H]1c1cccc(F)c1C(F)(F)F)c1ccccc1 (relative stereo) [Example 591] | – |
| – | 3.50^[b] | O=C(N[C@@H]1CC[C@H]1c1cccc(F)c1C(F)(F)F)c1ccc(Cl)cc1Cl (relative stereo) [Example 593] | – |
| – | 3.92^[b] | O=C(N[C@@H]1CC[C@H]1c1cccc(F)c1C(F)(F)F)c1cccc(Cl)c1 (relative stereo) [Example 596] | – |
| – | 3.50^[b] | O=C(N[C@@H]1CC[C@@H]1c1cccc(F)c1C(F)(F)F)c1cccc(Cl)c1 (relative stereo) [Example 597] | – |
| – | 3.88^[b] | O=C(N[C@@H]1CC[C@H]1c1cccc(F)c1C(F)(F)F)c1ccc(Cl)cc1 (relative stereo) [Example 600] | – |
| – | 4.10^[b] | O=C(N[C@@H]1CC[C@H]1c1cccc(F)c1C(F)(F)F)c1ncc(C(F)(F)F)cc1Cl (relative stereo) [Example 602] | – |
| – | 3.81^[b] | O=C(N[C@@H]1CC[C@@H]1c1cccc(F)c1C(F)(F)F)c1ncc(C(F)(F)F)cc1Cl (relative stereo) [Example 603] | – |
| – | 2.89^[b] | O=C(N[C@@H]1C[C@@H]1c1ccc(Cl)cc1Cl)c1cncnc1C(F)(F)F (relative stereo) [Example 610] | logP [4]: 2.87^[c]; |
| – | 2.99^[b] | Cn1ncc(C(=O)N[C@@H]2C[C@@H]2c2ccc(Cl)cc2Cl)c1C(F)F (relative stereo) [Example 612] | logP [4]: 2.94^[c]; |
| – | 3.82^[b] | O=C(N[C@@H]1C[C@@H]1c1ccc(Cl)cc1Cl)c1ccc(Cl)cc1Cl (relative stereo) [Example 613] | logP [4]: 3.76^[c]; |
| – | 2.40^[b] | CC1=C(C(=O)N[C@@H]2C[C@@H]2c2ccc(Cl)cc2Cl)S(=O)(=O)CCO1 (relative stereo) [Example 614] | logP [4]: 2.33^[c]; |
| – | 3.06^[b] | CC1=C(C(=O)N[C@@H]2C[C@@H]2c2ccc(Cl)cc2Cl)SCCO1 (relative stereo) [Example 615] | logP [4]: 3.01^[c]; |
| – | 3.30^[b] | O=C(N[C@@H]1CC[C@H]1c1cccc(F)c1C(F)(F)F)c1ncccc1Cl (relative stereo) [Example 616] | – |
| – | 2.26^[b] | O=C(N[C@@H]1CC[C@H]1c1ccccc1C(F)(F)F)c1cccnc1 (relative stereo) [Example 618] | – |
| – | 2.98^[b] | O=C(N[C@@H]1CC[C@H]1c1ccccc1C(F)(F)F)c1nccnc1Cl (relative stereo) [Example 622] | – |
| – | 3.34^[b] | O=C(N[C@@H]1CC[C@H]1c1ccccc1C(F)(F)F)c1ncccc1Br (relative stereo) [Example 624] | logP [4]: 3.27^[c]; |
| – | 3.56^[b] | Cc1nc(C(F)(F)F)c(C(=O)N[C@@H]2CC[C@H]2c2cccc(F)c2C(F)(F)F)s1 (relative stereo) [Example 625] | – |
| – | 3.28^[b] | Cc1nc(C(F)(F)F)c(C(=O)N[C@@H]2CC[C@@H]2c2cccc(F)c2C(F)(F)F)s1 (relative stereo) [Example 626] | – |
| – | 4.02^[b] | O=C(N[C@@H]1CC[C@H]1c1cccc(F)c1C(F)(F)F)c1sccc1I (relative stereo) [Example 627] | – |
| – | 3.65^[b] | O=C(N[C@@H]1CC[C@@H]1c1cccc(F)c1C(F)(F)F)c1sccc1I (relative stereo) [Example 628] | – |
